Tests used:
Assay in all cases: relative viability (nuclei count vs DMSO), 5 days (fraction); higher = more cells survive
VX-11e + Palbociclib = compound: CC1=CN=C(N=C1C2=CNC(=C2)C(=O)N[C@H](CO)C3=CC(=CC=C3)Cl)NC4=C(C=C(C=C4)F)Cl [VX-11e] + CC(=O)c1c(C)c2cnc(Nc3ccc(N4CCNCC4)cn3)nc2n(C2CCCC2)c1=O [Palbociclib] (partner 0.5 µM)
Method in brief: (§1)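 Lung cancer cell lines, seeded in 1536-well plates, were treated the following day by pin tool with a single drug or with five library-drug doses (not always all listed) in √10 steps on top of a fixed anchor-drug dose. Cells were fixed and nuclei stained in one step after 5 days, and nuclei were counted. Relative viability is the nuclei count for treated wells divided by that for vehicle wells, reported as medians of duplicate plates.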

VX-11e + Pictilisib = compound: CC1=CN=C(N=C1C2=CNC(=C2)C(=O)N[C@H](CO)C3=CC(=CC=C3)Cl)NC4=C(C=C(C=C4)F)Cl [VX-11e] + CS(=O)(=O)N1CCN(Cc2cc3nc(-c4cccc5[nH]ncc45)nc(N4CCOCC4)c3s2)CC1 [Pictilisib] (partner 1 µM)
Method in brief: as §1

VX-11e + Phenformin = compound: CC1=CN=C(N=C1C2=CNC(=C2)C(=O)N[C@H](CO)C3=CC(=CC=C3)Cl)NC4=C(C=C(C=C4)F)Cl [VX-11e] + N=C(N)NC(=N)NCCc1ccccc1 [Phenformin] (partner 250 µM)
Method in brief: as §1

VX-11e + Decitabine = compound: CC1=CN=C(N=C1C2=CNC(=C2)C(=O)N[C@H](CO)C3=CC(=CC=C3)Cl)NC4=C(C=C(C=C4)F)Cl [VX-11e] + Nc1ncn([C@H]2C[C@H](O)[C@@H](CO)O2)c(=O)n1 [Decitabine] (partner 2 µM)
Method in brief: as §1

Cell Line | relative viability (VX-11e + Palbociclib; first compound 0.1265 µM) | relative viability (VX-11e + Palbociclib; first compound 0.4 µM) | relative viability (VX-11e + Palbociclib; first compound 1.265 µM) | relative viability (VX-11e + Palbociclib; first compound 4 µM) | relative viability (VX-11e + Pictilisib; first compound 0.04 µM) | relative viability (VX-11e + Pictilisib; first compound 0.1265 µM) | relative viability (VX-11e + Pictilisib; first compound 0.4 µM) | relative viability (VX-11e + Pictilisib; first compound 1.265 µM) | relative viability (VX-11e + Pictilisib; first compound 4 µM) | relative viability (VX-11e + Phenformin; first compound 0.04 µM) | relative viability (VX-11e + Phenformin; first compound 0.1265 µM) | relative viability (VX-11e + Phenformin; first compound 0.4 µM) | relative viability (VX-11e + Phenformin; first compound 1.265 µM) | relative viability (VX-11e + Phenformin; first compound 4 µM) | relative viability (VX-11e + Decitabine; first compound 0.04 µM) | relative viability (VX-11e + Decitabine; first compound 0.1265 µM) | relative viability (VX-11e + Decitabine; first compound 0.4 µM) | relative viability (VX-11e + Decitabine; first compound 1.265 µM) | relative viability (VX-11e + Decitabine; first compound 4 µM) | relative viability (VX-11e + Palbociclib; first compound 0.04 µM)
SW 1573 | 0.342 | 0.351 | 0.259 | 0.15 | 0.509 | 0.522 | 0.404 | 0.307 | 0.298 | 0.39 | 0.346 | 0.289 | 0.287 | 0.154 | 0.384 | 0.446 | 0.363 | 0.372 | 0.22 | 
LK-2 | 0.594 | 0.566 | 0.399 | 0.45 |  | 0.45 | 0.562 |  | 0.337 | 0.241 | 0.601 | 0.311 | 0.189 | 0.173 | 0.179 | 0.33 | 0.177 | 0.208 | 0.207 | 0.557
NCI-H1793 | 0.255 |  | 0.28 | 0.232 |  | 0.329 |  | 0.273 | 0.232 | 0.372 | 0.314 |  | 0.34 | 0.245 |  | 0.406 |  | 0.516 | 0.351 | 
NCI-H1437 | 0.24 | 0.321 | 0.224 | 0.222 | 0.36 | 0.281 | 0.356 | 0.163 | 0.124 | 0.334 | 0.257 | 0.226 | 0.297 | 0.225 | 0.589 | 0.519 | 0.517 | 0.602 | 0.494 | 0.323
HOP-62 | 0.451 | 0.464 | 0.434 | 0.348 | 0.42 | 0.51 | 0.152 | 0.125 | 0.116 | 0.754 | 0.647 | 0.524 | 0.421 | 0.377 | 0.223 | 0.239 | 0.213 | 0.248 | 0.312 | 0.505
HCC-15 | 0.627 |  | 0.445 | 0.249 | 0.619 | 0.682 | 0.32 | 0.334 | 0.168 | 0.57 | 0.464 |  | 0.211 | 0.162 | 0.641 | 0.603 | 0.225 | 0.338 | 0.274 | 0.838
HCC-44 | 0.885 | 0.96 | 1.07 | 1.29 | 0.539 | 0.552 | 0.628 | 0.359 | 0.163 | 0.211 | 0.172 | 0.115 | 0.119 | 0.139 | 0.995 | 0.896 | 0.939 | 0.904 | 1.06 | 0.984
NCI-H520 | 0.254 | 0.232 | 0.244 | 0.292 | 0.267 | 0.276 | 0.34 | 0.274 | 0.336 | 0.505 | 0.483 | 0.449 | 0.752 | 0.479 | 0.539 | 0.533 | 0.492 | 0.668 | 0.476 | 0.202
NCI-H322M | 0.417 | 0.539 | 0.453 | 0.462 | 0.496 |  | 0.453 | 0.439 | 0.389 | 0.691 | 0.507 | 0.7 | 0.661 | 0.534 | 0.737 | 0.723 | 0.683 | 0.607 | 0.614 | 0.45
NCI-H2009 | 0.171 | 0.187 | 0.158 | 0.0988 | 0.712 | 0.671 | 0.478 | 0.23 | 0.186 | 0.575 | 0.535 | 0.481 | 0.251 | 0.178 | 0.377 | 0.394 | 0.369 | 0.293 | 0.244 | 0.177
ABC-1 |  | 0.655 | 0.548 | 0.65 | 0.615 | 0.539 | 0.809 | 0.518 | 0.466 | 0.205 | 0.277 | 0.224 | 0.243 | 0.281 | 1.11 |  | 0.992 | 1.06 | 0.977 | 0.568
A-427 | 0.442 | 0.516 | 0.496 | 0.336 | 0.454 | 0.468 | 0.535 | 0.422 | 0.154 | 0.343 | 0.213 | 0.263 | 0.264 | 0.158 | 0.559 | 0.518 | 0.569 | 0.645 | 0.443 | 0.553
LOU-NH91 | 0.509 |  | 0.487 | 0.521 | 0.474 | 0.54 |  | 0.501 | 0.504 | 0.65 | 0.721 | 0.312 | 0.468 | 0.569 | 0.829 | 0.777 |  | 0.85 | 0.768 | 0.533
HCC-366 | 0.311 |  | 0.314 | 0.163 | 0.159 | 0.101 | 0.15 | 0.12 | 0.081 | 0.61 | 0.549 |  | 0.57 | 0.463 | 0.402 | 0.348 |  | 0.322 | 0.217 | 0.385
NCI-H838 | 0.187 | 0.18 | 0.214 | 0.203 | 0.333 | 0.435 | 0.266 | 0.424 | 0.292 | 0.539 | 0.604 | 0.17 | 0.445 | 0.379 | 0.44 | 0.428 | 0.447 | 0.474 | 0.524 | 0.225
NCI-H650 | 0.487 | 0.519 | 0.329 | 0.491 |  | 0.927 | 1.23 |  | 0.819 | 0.496 | 0.441 | 0.491 | 0.442 | 0.446 | 0.386 | 0.312 | 0.325 | 0.403 | 0.371 | 0.358
NCI-H1666 | 0.632 |  | 0.68 | 0.72 | 0.511 | 0.406 | 0.367 | 0.336 | 0.294 | 0.556 | 0.554 | 0.478 | 0.569 | 0.503 | 0.636 | 0.769 | 0.541 | 0.671 | 0.598 | 0.616
